{
  "source": "patent EP1609872A1",
  "about": "“A method for selecting a gene involved in nisin resistance in bacteria” (Stichting voor de Technische Wetenschappen, priority 2004, dated 2005)",
  "key": {"L. lactis IL1403 Nis^R": {"test_system": "L. lactis IL1403 Nis^R", "assay": "MIC determination (nisin sensitivity assay)", "assay_type": "cell-based, Lactococcus lactis", "experimental": "Generation of nisin-resistant variants of L. lactis IL1403― A nisin stock solution was derived from nisaplin, (2.5% nisin, Aplin and Barrett, Danisco, Denmark) as described earlier (44). Nisin-resistant isogenic variants of L. lactis IL1403 were obtained by growing the strain in broth, while stepwise increasing the nisin concentration, as described before (29).\nNisin sensitivity assays― Sensitivity to nisin was determined essentially as described before (32) for the strains L. lactis NZ9000, L. lactis NZ9000 ΔgalAMK, L. lactis MG1363 and L. lactis MG1363 ΔdltD (16). For the strains of L. lactis NZ9000 (pNZ8048) and L. lactis NZ9000 (pJK1), the cells were diluted 50-fold in fresh medium. At an OD600 of 0.2 the cells of both cultures were induced with 4 µg/L nisin for 2 h. Nisin induction of PnisA in the pNZ8048 derivatives was performed as described by de Ruyter et al. (12). Outgrowth in all wells was determined at the moment when wells containing cells without nisin had reached an OD595 of 0.8, measured in an ELISA micro titer plate reader (Spectramax plus 384, Molecular Devices, Wageningen, the Netherlands). MIC values were calculated from the lowest concentration of nisin at which growth of the test strain was inhibited."}, "M. flavus Nis^R": {"test_system": "M. flavus Nis^R", "assay": "Determination of the Minimal Inhibitory Concentration (Example 2)", "assay_type": "cell-based, Micrococcus flavus", "conditions": "cross-resistance of the Nis^R strains", "experimental": "M. flavus and L. lactis were grown overnight at their optimum growth conditions. The Nis^R variants were grown in the presence of nisin (3 mg/L). The MIC values were estimated essentially as described before (23)."}},
  "data": [
    {"smiles": "C=C1NC(=O)[C@@H]2NC(=O)[C@H](CC(C)C)NC(=O)[C@H](NC(=O)[C@@H]3CS[C@@H](C)[C@@H](NC(=O)[C@H](Cc4ccccc4)NC(=O)[C@@H]4NC(=O)[C@@H](N)CS[C@H]4C)C(=O)N[C@@H](CC(C)C)C(=O)N4CCC[C@H]4C(=O)NCC(=O)NCC(=O)NCC(=O)NCC(=O)N[C@@H](C(C)C)C(=O)N3)[C@H](C)SC[C@H](NC(=O)[C@H](CCC(=O)O)NC1=O)C(=O)N[C@@H]([C@@H](C)CC)C(=O)N/C=C\\S[C@H]2C", "note": "[Mersacidin, mersacidin]", "values": [
      {"measurement": "cross-resistance", "setting": "L. lactis IL1403 Nis^R", "value": "no cross-resistance"},
      {"measurement": "change in MIC in the nisin resistant strain", "setting": "M. flavus Nis^R", "value": "No change"}
    ]}
  ]
}
